Reference: patent US8901071B2, “Compounds and their use” (Novabiotics Limited, priority 2010, dated 2014)
No end group written: not given here.

Assays:
[1] = system: P. aeruginosa bacterial biofilms; experiment: bacterial biofilm assay, Example 2 (optical density at 625 nm; FIGS. 3-4); format: cell-based; details: biofilm grown 18 hours, 24 hours incubation, 0 to 1 mg/ml, combinations in equal concentration
Protocol: (§1) P. aeruginosa bacterial biofilms and S. aureus bacterial biofilms were grown in Mueller-Hinton agar in separate 96-well microtitre plates for 18 hours at 37 degrees Celsius. The planktonic cells and medium were then removed and the bacterial biofilms were washed three times with phosphate buffer solution at a pH of around 7. Two-fold dilutions of three different antimicrobial agents in Mueller Hinton broth were then added to the bacterial biofilms. The microtitre plates were incubated at 37 degrees Celsius for 24 hours. The medium was then transferred to a fresh microtitre plate and the optical density of the bacterial biofilm was measured at 625 nm on a microtitre plate reader (BioTek Powerwave, X S, Winooski, USA.
(§2) The antimicrobial agents tested were NP432 alone, a combination of NP432 and NM001 in equal concentration, a combination of NP432 and NP 108 in equal concentration, NP445 alone, a combination of NP445 and NM001 in equal concentration, a combination of NP445 and NP 108 in equal concentration. The antimicrobial agents were tested at concentrations of 0 to 1 mg/ml against P. aeruginosa bacterial biofilms and S. aureus bacterial biofilms.

[2] = system: S. aureus bacterial biofilms; experiment: bacterial biofilm assay, Example 2 (optical density at 625 nm; FIGS. 5-6); format: cell-based; details: biofilm grown 18 hours, 24 hours incubation, 0 to 1 mg/ml, combinations in equal concentration
Protocol: as §1, §2

mice = experiment: lethality of peptide in mice; format: in vivo; details: dose of around 5 mg/kg

| Sequence | antimicrobial effect against P. aeruginosa bacterial biofilms [1] | antimicrobial effect against S. aureus bacterial biofilm [2] | lethality to mice (mice) |
| --- | --- | --- | --- |
| KKFPWRLRLRYGRR (sythetic peptide) [NP445] | antimicrobial effect | antimicrobial effect | – |
| RRRFRFFFRFRRR [NP432, RRRFRFFFRFRRR] | – | – | non-lethal |
